Read-outs that look alike come from different tables or passages of the source.
Columns and labels:
[1] = system: M14; experiment: Cell viability (MTS) anti-proliferative assay, M14; assay type: cell-based; conditions: M14 human melanoma, 48 h treatment, n = 4, read-out: IC50 values ± SEM, M14
Protocol: (§1) The anti-proliferative effect of UC-112 and its analogs were tested in human melanoma (A375, M14 and M14/LCC6MDR1) and human prostate cancer (PC-3) cell lines. All the cell lines were purchased from ATCC (American Type Culture Collection, Manassas, VA). The cancer cells were cultured using the supplemented cell culture medium as described before at 37°C in a humidified atmosphere containing 5% CO2. 5000 cells in logarithm growing phase were seeded overnight into each well of a 96-well plate. Then the cells were continuously incubated with sequential diluted compound solution (10 nM to 100 μM, 100 μl per well) in cell culture medium.

[2] = system: A375; experiment: Cell viability (MTS) anti-proliferative assay, A375; assay type: cell-based; conditions: A-375, A375 human melanoma, 48 h treatment, n = 4, read-out: IC50 values ± SEM, A375
Protocol: as §1

[3] = system: M14/LCC6MDR1; experiment: Cell viability (MTS) anti-proliferative assay, multidrug-resistant M14/LCC6MDR1; assay type: cell-based, human; conditions: for IC50: multidrug-resistant M14/LCC6MDR1 melanoma, 48 h treatment, MTS, n = 4, read-out: IC50 values ± SEM, M14/LCC6MDR1; for Resistance Index: IC50 on M14/LCC6MDR1 divided by IC50 on parental M14
Protocol: as §1

[4] = system: PC-3; experiment: Cell viability (MTS) anti-proliferative assay, PC-3; assay type: cell-based; conditions: PC-3 human prostate cancer, 48 h treatment, n = 4, read-out: IC50 values ± SEM, PC-3
Protocol: as §1

[5] = system: caspase 3/7; experiment: Caspase 3/7 functional assay (Caspase-Glo 3/7); assay type: cell-based, human; conditions: 1 μM, 24 h, A375 or PC-3 cells, N = 3
Protocol: The caspase 3/7 activity of cancer cells treated by DMSO control or compound of interest was analyzed using Glo Caspase-Glo 3/7 kit from Promega Corporation (Madison, WI) as per manufacturer’s instructions in similar protocol as described before. The readings of relative luminescence unit were normalized by the cell viability read from the same well determined by compatible CytoTox-Fluor Cytotoxicity assay kit (Promega, WI).

[6] = system: NCI-60 cell lines; experiment: NCI-60 cell line screening (SRB), whole panel; assay type: cell-based, human; conditions: for Activity in NCI-60 one-concentration screening: 10 μM
Protocol: Four compounds including the parental compound UC-112 were submitted to National Cancer Institute for its NCI-60 cell line screening, initially tested at one concentration (10 μM), and subsequently selected for full five concentration testing following the standard protocols disclosed by NCI [34]. In brief, cells were plated into 96 well micro-titer plates 24 h prior to the treatment of compound solution for 48 h, then the cell viability was read out through absorbance of sulforhodamine B (SRB) staining.

Oc1c(CN2CCCC2)cc(COCC2CCCCC2)c2cccnc12 [6d, 5-((cyclohexylmethoxy)methyl)-7-(pyrrolidin-1-ylmethyl)quinolin-8-ol]
IC50 [1]: 1300 ± 600 nM | IC50 [2]: 1000 ± 100 nM

Oc1c(CN2CCCC2)cc(COCCCc2ccccc2)c2cccnc12 [10b, 5-((3-phenylpropoxy)methyl)-7-(pyrrolidin-1-ylmethyl)quinolin-8-ol]
IC50 [1]: 2300 ± 800 nM | IC50 [2]: 2400 ± 700 nM | IC50 ([3]; Homo sapiens, 48 h): 15000 to 20000 nM | Resistance Index [3]: 8.7 | IC50 [3]: 20000 ± 1600 nM

COc1cc(COCc2cc(CN3CCCC3)c(O)c3ncccc23)cc(OC)c1OC [4l, 7-(pyrrolidin-1-ylmethyl)-5-(((3,4,5-trimethoxybenzyl)oxy)methyl)quinolin-8-ol]
IC50 [1]: 3600 ± 1000 nM | IC50 [4]: 1600 ± 300 nM | IC50 [2]: 2800 ± 400 nM | IC50 ([3]; Homo sapiens, 48 h): > 30000 nM | Resistance Index [3]: > 8.3

CCCCOCc1cc(CN2CCCC2)c(O)c2ncccc12 [6g, 5-(butoxymethyl)-7-(pyrrolidin-1-ylmethyl)quinolin-8-ol]
IC50 [1]: 4900 ± 1300 nM | IC50 [2]: 3000 ± 500 nM

COc1ccc(COCc2cc(CN3CCCC3)c(O)c3ncccc23)cc1 [4i, 5-(((4-methoxybenzyl)oxy)methyl)-7-(pyrrolidin-1-ylmethyl)quinolin-8-ol]
IC50 [1]: 1500 ± 400 nM | IC50 [4]: 1000 ± 400 nM | IC50 [2]: 1800 ± 200 nM | IC50 ([3]; Homo sapiens, 48 h): 3800 ± 600 nM | Resistance Index [3]: 2.5

Oc1c(CN2CCCC2)cc(COCc2ccco2)c2cccnc12 [6a, 5-((furan-2-ylmethoxy)methyl)-7-(pyrrolidin-1-ylmethyl)quinolin-8-ol]
IC50 [1]: 3100 ± 300 nM | IC50 [4]: 27500 ± 2000 nM | IC50 [2]: 2700 ± 300 nM | IC50 ([3]; Homo sapiens, 48 h): 15300 ± 3100 nM | Resistance Index [3]: 4.9

Oc1c(CN2CCCC2)cc(COCc2ccc(OCc3ccccc3)cc2)c2cccnc12 [4j, 5-(((4-(benzyloxy)benzyl)oxy)methyl)-7-(pyrrolidin-1-ylmethyl)quinolin-8-ol]
IC50 [2]: 2800 ± 100 nM | IC50 ([3]; Homo sapiens, 48 h): 12100 ± 500 nM

Oc1c(CN2CCCC2)cc(COCc2ccc(Cl)cc2)c2cccnc12 [4b, 5-(((4-chlorobenzyl)oxy)methyl)-7-(pyrrolidin-1-ylmethyl)quinolin-8-ol]
IC50 [1]: 1100 ± 100 nM | IC50 [4]: 900 ± 100 nM | IC50 [2]: 1500 ± 300 nM | IC50 ([3]; Homo sapiens, 48 h): 2400 ± 500 nM | Resistance Index [3]: 2.2

Cc1ccc(COCc2cc(CN3CCCC3)c(O)c3ncccc23)cc1 [4e, 5-(((4-methylbenzyl)oxy)methyl)-7-(pyrrolidin-1-ylmethyl)quinolin-8-ol]
IC50 [1]: 2300 ± 500 nM | IC50 [4]: 1100 ± 200 nM | IC50 [2]: 1700 ± 300 nM | IC50 ([3]; Homo sapiens, 48 h): 4100 ± 2000 nM | Resistance Index [3]: 1.8

CC(=O)Nc1ccc(COCc2cc(CN3CCCC3)c(O)c3ncccc23)cc1 [4k, N-(4-(((8-hydroxy-7-(pyrrolidin-1-ylmethyl)quinolin-5-yl)methoxy)methyl)phenyl)acetamide]
IC50 [2]: 4700 ± 800 nM | IC50 ([3]; Homo sapiens, 48 h): 5500 ± 1300 nM

CCOCc1cc(CN2CCCC2)c(O)c2ncccc12 [6e, 5-(ethoxymethyl)-7-(pyrrolidin-1-ylmethyl)quinolin-8-ol]
IC50 [1]: 5100 ± 2100 nM | IC50 [2]: 6100 ± 700 nM

Oc1c(CN2CCCC2)cc(COCc2cccs2)c2cccnc12 [6b, 7-(pyrrolidin-1-ylmethyl)-5-((thiophen-2-ylmethoxy)methyl)quinolin-8-ol]
IC50 [1]: 1900 ± 900 nM | IC50 [4]: 3400 ± 700 nM | IC50 [2]: 2500 ± 500 nM | IC50 ([3]; Homo sapiens, 48 h): 4200 ± 200 nM | Resistance Index [3]: 2.2

COCCn1c2c([n+](Cc3cnccn3)c1C)C(=O)c1ccccc1C2=O [YM-155, reference compound]
IC50 [1]: 3 nM | IC50 ([3]; Homo sapiens, 48 h): > 10000 nM | Resistance Index [3]: higher than 2941

Oc1c(CN2CCCC2)cc(CSCc2ccccc2)c2cccnc12 [12a, 5-((benzylthio)methyl)-7-(pyrrolidin-1-ylmethyl)quinolin-8-ol]
IC50 [1]: 1400 ± 200 nM | Caspase 3/7 activation relative to DMSO control group [5]: up to 4 folds | IC50 [4]: 1100 ± 100 nM | IC50 [2]: 1400 ± 300 nM | Activity in NCI-60 one-concentration screening [6]: good activity | IC50 ([3]; Homo sapiens, 48 h): 2900 ± 600 nM | Resistance Index [3]: 2.1

Oc1c(CN2CCCC2)cc(COCCc2ccccc2)c2cccnc12 [10a, 5-(phenethoxymethyl)-7-(pyrrolidin-1-ylmethyl)quinolin-8-ol]
IC50 [1]: 2900 ± 200 nM | IC50 [2]: 2800 ± 900 nM | IC50 ([3]; Homo sapiens, 48 h): 15000 to 20000 nM | Resistance Index [3]: 5.2 | IC50 [3]: 15000 ± 2500 nM

Oc1c(CN2CCCCC2)cc(COCc2ccccc2)c2cccnc12 [8a, 5-((benzyloxy)methyl)-7-(piperidin-1-ylmethyl)quinolin-8-ol]
IC50 [1]: 1300 ± 200 nM | IC50 [4]: 1300 ± 300 nM | IC50 [2]: 1100 ± 100 nM | IC50 ([3]; Homo sapiens, 48 h): 2100 ± 600 nM | Resistance Index [3]: 1.6

CCCOCc1cc(CN2CCCC2)c(O)c2ncccc12 [6f, 5-(propoxymethyl)-7-(pyrrolidin-1-ylmethyl)quinolin-8-ol]
IC50 [1]: 5900 ± 1200 nM | IC50 [2]: 5000 ± 300 nM

Oc1c(CN2CCOCC2)cc(COCc2ccccc2)c2cccnc12 [8b, 5-((benzyloxy)methyl)-7-(morpholinomethyl)quinolin-8-ol]
IC50 [1]: 4800 ± 500 nM | IC50 [2]: 5000 ± 1600 nM | IC50 ([3]; Homo sapiens, 48 h): 3500 ± 1000 nM | Resistance Index [3]: 0.7

Oc1c(CN2CCCC2)cc(COCc2ccccn2)c2cccnc12 [6c, 5-((pyridin-2-ylmethoxy)methyl)-7-(pyrrolidin-1-ylmethyl)quinolin-8-ol]
IC50 [1]: 8000 ± 2200 nM | IC50 [4]: > 30000 nM | IC50 [2]: 8400 ± 1500 nM | IC50 ([3]; Homo sapiens, 48 h): > 30000 nM | Resistance Index [3]: >3.8

Oc1c(CN2CCCC2)cc(COCc2ccc(F)cc2)c2cccnc12 [4a, 5-(((4-fluorobenzyl)oxy)methyl)-7-(pyrrolidin-1-ylmethyl)quinolin-8-ol]
IC50 [1]: 1800 ± 300 nM | IC50 [4]: 700 ± 200 nM | IC50 [2]: 1500 ± 200 nM | IC50 ([3]; Homo sapiens, 48 h): 4400 ± 700 nM | Resistance Index [3]: 2.4

Oc1c(CN2CCCC2)cc(COCc2ccc(Br)cc2)c2cccnc12 [4c, 5-(((4-bromobenzyl)oxy)methyl)-7-(pyrrolidin-1-ylmethyl)quinolin-8-ol]
IC50 [1]: 1000 ± 200 nM | Caspase 3/7 activation relative to DMSO control group [5]: up to 4 folds | IC50 [4]: 700 ± 300 nM | IC50 [2]: 900 ± 200 nM | Activity in NCI-60 one-concentration screening [6]: good activity | IC50 ([3]; Homo sapiens, 48 h): 1800 ± 600 nM | Resistance Index [3]: 1.8

CC(C)(C)c1ccc(COCc2cc(CN3CCCC3)c(O)c3ncccc23)cc1 [4h, 5-(((4-(tert-butyl)benzyl)oxy)methyl)-7-(pyrrolidin-1-ylmethyl)quinolin-8-ol]
IC50 [4]: 1500 ± 300 nM | IC50 [2]: 1100 ± 400 nM | IC50 ([3]; Homo sapiens, 48 h): 1500 ± 700 nM

Oc1c(CN2CCCC2)cc(COCc2ccccc2)c2cccnc12 [UC-112, 5-((benzyloxy)methyl)-7-(pyrrolidin-1-ylmethyl)quinolin-8-ol, reference compound]
IC50 [1]: 2100 ± 300 nM | IC50 [4]: 1600 ± 1000 nM | IC50 [2]: 1900 ± 600 nM | GI50 ([6]; Homo sapiens, five dose testing, 48 h, SRB, read-out: Average GI50 over all cancer cell lines in the NCI-60 panel): 2200 nM | Activity in NCI-60 one-concentration screening [6]: good activity | IC50 ([3]; Homo sapiens, 48 h): 3200 ± 500 nM | Resistance Index [3]: 1.5

Oc1c(CN2CCCC2)cc(COCc2ccc(C(F)(F)F)cc2)c2cccnc12 [4d, 7-(pyrrolidin-1-ylmethyl)-5-(((4-(trifluoromethyl)benzyl)oxy)methyl)quinolin-8-ol]
IC50 [1]: 1000 ± 400 nM | IC50 [4]: 1000 ± 100 nM | IC50 [2]: 900 ± 300 nM | IC50 ([3]; Homo sapiens, 48 h): 1900 ± 500 nM | Resistance Index [3]: 1.9

CN(Cc1ccccc1)Cc1cc(CN2CCCC2)c(O)c2ncccc12 [12b, 5-((benzyl(methyl)amino)methyl)-7-(pyrrolidin-1-ylmethyl)quinolin-8-ol]
IC50 [1]: 6200 ± 1400 nM | IC50 [4]: 2500 ± 600 nM | IC50 [2]: 7100 ± 700 nM | IC50 ([3]; Homo sapiens, 48 h): 8000 ± 1000 nM | Resistance Index [3]: 1.3
